{
  "source": "patent US20200032313A1",
  "about": "(SANYO CHEMICAL INDUSTRIES, LTD., priority 2017, published 2020)",
  "assay": "physchem",
  "settings": "pKa of the ionizable group in water at 25° C., two values where two ionizable groups",
  "protocol": "The pKa of the ionizable group in water is a value determined at 25° C.",
  "data": [
    {"compound": "CCCCCCCCCCCC[N+](C)(C)C.[Cl-]", "note": "[Surfactant (A2-1), lauryl trimethyl ammonium chloride]", "values": [
      {"measurement": "pKa", "result": 14}
    ]}
  ]
}
